In US20260216359A1, “CYCLIC PEPTIDE-BASED LYSOSOME TARGETING DEGRADERS” (Wisconsin Alumni Research Foundation, priority 2023, published 2026):

Columns and labels:
anti-biotin-647 = assay: lysosomal degradation of anti-biotin-647 in MCF7 cells, in gel fluorescence; assay type: cell-based; settings: 25 nM Ab-cRGD and 50 nM anti-biotin-647 for 3 h, then 50 nM BAF1 for 3 h
Procedure: MCF7 cells were seeded in a 48-well plate at 70% confluence and maintained in 200 μL complete culture media. Next day, cells were incubated with 25 nM of Ab-cRGD and 50 nM of anti-biotin-647 for 3 h followed by three washes with PBS. Cells were then maintained in fresh media with or without 50 nM Bafilomycin A1 (BAF1) for another 3 h before harvested for in gel fluorescence analysis.

EGFR = assay: inhibition of Ctx-PEG12-cRGD-induced EGFR degradation in MCF7 cells, western blot; assay type: cell-based; settings: BAF1 50 nM, CQ 10 uM, in the presence of 10 nM Ctx-PEG12-cRGD for 6h
Procedure: MCF7 cells were seeded at 70% confluence in a 24-well plate and incubated in 350 μL complete culture media overnight. Cells were pre-treated with free excess cRGD-azide with concentrations indicated in the figure at 4° C. for 1 h before incubating with 10 nm Ctx-PEG12-cRGD for 8 h. Cells were then harvested for western blot.
MCF7 cells were seeded at 70% confluence in a 24-well plate and incubated in 350 μL complete culture media overnight. Cells were treated with lysosomal degradation inhibitor Bafilomycin A1 (BAF1) at 50 nM and Chloroquine (CQ) at 10 uM in the presence of 10 nM Ctx-PEG12-cRGD for 6h.

α5β1 = α5β1 (Homo sapiens, UniProt P05556+P08648); settings: Kapp et al., 2017; one range given for αvβ5, αvβ6, α5β1; cited from earlier work
Chain of α5β1 (P08648 42-894 limits assumed): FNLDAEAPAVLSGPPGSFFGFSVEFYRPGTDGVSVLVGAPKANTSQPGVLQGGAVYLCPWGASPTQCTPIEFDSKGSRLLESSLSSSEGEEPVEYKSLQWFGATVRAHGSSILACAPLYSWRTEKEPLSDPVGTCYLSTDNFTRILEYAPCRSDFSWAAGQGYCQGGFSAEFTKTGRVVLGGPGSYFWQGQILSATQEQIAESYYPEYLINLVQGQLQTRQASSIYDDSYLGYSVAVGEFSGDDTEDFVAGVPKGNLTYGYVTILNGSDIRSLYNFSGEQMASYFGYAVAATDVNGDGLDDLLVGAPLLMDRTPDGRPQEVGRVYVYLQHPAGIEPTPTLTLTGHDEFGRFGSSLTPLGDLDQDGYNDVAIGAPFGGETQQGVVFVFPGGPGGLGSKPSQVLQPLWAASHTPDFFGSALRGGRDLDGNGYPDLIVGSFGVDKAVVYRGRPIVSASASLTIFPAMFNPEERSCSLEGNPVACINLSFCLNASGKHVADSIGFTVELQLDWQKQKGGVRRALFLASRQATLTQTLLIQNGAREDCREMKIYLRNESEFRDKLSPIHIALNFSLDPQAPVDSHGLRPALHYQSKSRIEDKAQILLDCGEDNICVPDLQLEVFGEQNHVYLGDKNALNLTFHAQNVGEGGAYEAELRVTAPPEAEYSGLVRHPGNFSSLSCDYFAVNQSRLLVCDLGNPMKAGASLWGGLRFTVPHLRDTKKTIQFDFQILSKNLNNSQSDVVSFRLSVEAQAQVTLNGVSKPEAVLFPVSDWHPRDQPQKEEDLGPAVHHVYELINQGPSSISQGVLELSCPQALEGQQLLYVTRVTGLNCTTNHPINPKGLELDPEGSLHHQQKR
Chain of α5β1 (P08648 895-995 partner limits assumed): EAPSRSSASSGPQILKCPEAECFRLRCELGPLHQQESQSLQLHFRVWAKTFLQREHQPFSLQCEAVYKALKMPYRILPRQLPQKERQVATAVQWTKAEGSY
Chain of α5β1 (P05556 21-728 limits assumed): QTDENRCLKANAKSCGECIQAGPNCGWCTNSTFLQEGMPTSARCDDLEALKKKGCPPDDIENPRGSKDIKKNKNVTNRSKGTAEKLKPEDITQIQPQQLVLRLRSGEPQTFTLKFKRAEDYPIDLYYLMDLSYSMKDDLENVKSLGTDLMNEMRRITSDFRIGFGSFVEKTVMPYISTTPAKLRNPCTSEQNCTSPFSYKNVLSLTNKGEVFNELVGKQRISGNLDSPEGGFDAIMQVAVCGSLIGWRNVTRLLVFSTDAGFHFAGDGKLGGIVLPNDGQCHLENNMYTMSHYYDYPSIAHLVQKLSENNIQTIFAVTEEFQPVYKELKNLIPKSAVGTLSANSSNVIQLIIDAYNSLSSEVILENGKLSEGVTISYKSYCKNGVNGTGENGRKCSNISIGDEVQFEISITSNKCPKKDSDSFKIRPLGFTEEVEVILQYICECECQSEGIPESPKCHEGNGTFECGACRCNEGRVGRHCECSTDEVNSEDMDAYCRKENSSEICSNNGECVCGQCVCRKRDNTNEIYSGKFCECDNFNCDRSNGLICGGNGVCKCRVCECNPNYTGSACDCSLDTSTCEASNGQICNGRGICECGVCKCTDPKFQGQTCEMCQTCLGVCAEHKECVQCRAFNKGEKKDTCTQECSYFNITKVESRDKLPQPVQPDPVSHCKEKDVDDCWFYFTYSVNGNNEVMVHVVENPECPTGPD

Compound	inhibition of lysosomal degradation of anti-biotin-647 (FIG. 14) (anti-biotin-647)	inhibition of EGFR degradation by lysosomal degradation inhibitors (FIG. 16) (EGFR)	binding to α5β1 (α5β1)
CO/C1=C\C(C)=C\[C@@H](C)[C@@H](O)[C@@H](C)C/C(C)=C/C=C/[C@H](OC)[C@@H]([C@@H](C)[C@@H](O)[C@H](C)[C@@]2(O)C[C@@H](O)[C@H](C)[C@@H](C(C)C)O2)OC1=O [Bafilomycin A1]	inhibition of lysosomal degradation of anti-biotin-647	inhibition of EGFR degradation	
CCN(CC)CCCC(C)Nc1ccnc2cc(Cl)ccc12 (stereo not shown) [Chloroquine]		inhibition of EGFR degradation	
cyclo(Arg-Gly-Asp-D-Phe-Lys) [cRGD]			50 to 350 nM
